One assay concerns Staphylococcus aureus. The experiment in a line: microbe, parasite or virus in culture. As to conditions: ATCC 43300, 18 h, ASSAY_TEST Inhibition of Bacterial Growth, detection method Absorption (OD600), MEDIA CAMHB, plate type 384well, NBS, CORNING #3640.
The next assay has as its system Candida albicans. The experiment in a line: microbe, parasite or virus in culture. Particulars: ATCC 90028, ASSAY_TEST Inhibition of Fungal Growth, detection method Absorption (OD530), plate type 384well, NBS, CORNING #3640.
For the next assay, the system named is Escherichia coli. The experiment in a line: microbe, parasite or virus in culture. As to conditions: ATCC 25922, 18 h, ASSAY_TEST Inhibition of Bacterial Growth, detection method Absorption (OD600), MEDIA CAMHB, plate type 384well, NBS, CORNING #3640.
Assay [1] concerns Pseudomonas aeruginosa. The experiment in a line: microbe, parasite or virus in culture. As to conditions: ATCC 27853, 18 h, ASSAY_TEST Inhibition of Bacterial Growth, detection method Absorption (OD600), MEDIA CAMHB, plate type 384well, NBS, CORNING #3640.
Description: Antibacterial activity against Pseudomonas aeruginosa ATCC 27853 (CO-ADD:GN_042); MIC in CAMBH media using NBS plates, by OD(600)
The test system of a further assay is Klebsiella pneumoniae. The experiment in a line: microbe, parasite or virus in culture. Particulars: ATCC 700603, 18 h, ASSAY_TEST Inhibition of Bacterial Growth, detection method Absorption (OD600), MEDIA CAMHB, plate type 384well, NBS, CORNING #3640.
For another assay, the system named is Acinetobacter baumannii. Nature of the assay: microbe, parasite or virus in culture. As to conditions: ATCC 19606, 18 h, ASSAY_TEST Inhibition of Bacterial Growth, detection method Absorption (OD600), MEDIA CAMHB, plate type 384well, NBS, CORNING #3640.
For assay [2], the system named is Pseudomonas aeruginosa. Nature of the assay: Antibacterial activity against Pseudomonas aeruginosa PAO397 [PAO1 d(mexAB-oprM) d(mexCD-oprJ) d(mexEF-oprN) d(mexJKL) d(mexXY) d(opmH)] (CO-ADD:GN_211); MIC in CAMBH media using NBS plates, by OD(600). Type of assay: functional. As to conditions: ASSAY_TEST Inhibition of Bacterial Growth, detection method Absorption (OD600), MEDIA CAMHB, plate type 384well, CORNING #3640, time 18 hr.

Another assay deals with HEK293. The experiment in a line: cells. As to conditions: Homo sapiens, ATCC CRL1573, HEK293; ASSAY_TEST Inhibition of Cell Viability; detection method Resazurin; Fluorescence (ex560/em590); MEDIA DMEM with 10% FBS; plate type 384well; TC; CORNING #3712; time 18 hr; read-out: CC50. Type of assay: functional, Homo sapiens, ATCC CRL1573. For orientation: Resazurin is reduced to fluorescent resorufin, in cell work by metabolically active cells.

Data on 9 molecules can be found in ChEMBL document CHEMBL4513161, “CO-ADD screening of MMV (CH) - Pandemic Response Box” (2021).

Converted amounts (≈) assume the structure as drawn.

Description for Acinetobacter baumannii: Antibacterial activity against Acinetobacter baumannii ATCC 19606 (CO-ADD:GN_034); MIC in CAMBH media using NBS plates, by OD600
Description for Candida albicans: Antifungal activity against Candida albicans ATCC 90028 (CO-ADD:FG_001); MIC in YNB media using NBS plates, by OD630
Description for Cryptococcus neoformans: Antifungal activity against Cryptococcus neoformans H99 ATCC 208821 (CO-ADD:FG_002); MIC in YNB media using NBS plates, by Resazurin OD(600-570)
Description for Escherichia coli: Antibacterial activity against Escherichia coli ATCC 25922 (CO-ADD:GN_001); MIC in CAMBH media using NBS plates, by OD(600)
Description for Klebsiella pneumoniae: Antibacterial activity against Klebsiella pneumoniae MDR ATCC 70063 (CO-ADD:GN_003); MIC in CAMBH media using NBS plates, by OD(600)
Description for Staphylococcus aureus: Antibacterial activity against Staphylococcus aureus MRSA ATCC 43300 (CO-ADD:GP_020); MIC in CAMBH media, using NBS plates, by OD(600)

Take `COc1ccccc1CN[C@H]1C2CCN(CC2)[C@H]1C(c1ccccc1)c1ccccc1` [CP-96345]: the MIC against Staphylococcus aureus, against Candida albicans, in the assay on Escherichia coli, in the assay on Cryptococcus neoformans, with Pseudomonas aeruginosa [1] and against Klebsiella pneumoniae was more than 20 µM throughout. Further, the MIC against Acinetobacter baumannii and against Pseudomonas aeruginosa [2] was more than 20 µM in each case. The 50% cytotoxic concentration (CC50) with HEK293 is more than 20 µM.
As to `O=c1cc(NCCCN[C@@H]2CCOc3c(Br)cc(Br)cc32)[nH]c2ccsc12` [CRS-3123], the MIC against Staphylococcus aureus is 0.312 µM (≈ 0.16 µg/mL); against Candida albicans, more than 20 µM; against Escherichia coli, more than 20 µM; against Cryptococcus neoformans, more than 20 µM; in the assay on Pseudomonas aeruginosa [1], more than 20 µM; against Klebsiella pneumoniae, more than 20 µM. For the same molecule, the figures for the MIC with Acinetobacter baumannii and in the assay with Pseudomonas aeruginosa [2] were more than 20 µM and 20 µM (≈ 10.3 µg/mL), respectively. Besides, the CC50 in the assay with HEK293 was more than 20 µM.
On to `O=C(NO)C1(CS(=O)(=O)c2ccc(Oc3ccc(Cl)cc3)cc2)CCOCC1` [CTS-1027], for which the MIC with Staphylococcus aureus, against Candida albicans, against Escherichia coli, in the assay with Cryptococcus neoformans, against Pseudomonas aeruginosa [1] and in the assay with Klebsiella pneumoniae was more than 20 µM in each case. Also, the values for the MIC against Acinetobacter baumannii and against Pseudomonas aeruginosa [2] were more than 20 µM and 20 µM (≈ 8.52 µg/mL), respectively. Besides, the 50% cytotoxic concentration (CC50) with HEK293 is more than 20 µM.
With `O=C(O)c1ccc(-n2nc(-c3ccccc3O)nc2-c2ccccc2O)cc1` [DEFERASIROX], the MIC in the assay with Staphylococcus aureus, with Candida albicans, with Escherichia coli, in the assay on Cryptococcus neoformans, with Pseudomonas aeruginosa [1] and against Klebsiella pneumoniae was more than 20 µM each time. Besides, the MIC against Acinetobacter baumannii and against Pseudomonas aeruginosa [2] was more than 20 µM throughout. Moreover, the CC50 in the assay with HEK293 is more than 20 µM.
With `COc1cc2c(O)c3c(c(-c4ccc5c(c4)OCO5)c2cc1OC)C(=O)OC3` [DIPHYLLIN], the MIC in the assay with Staphylococcus aureus, in the assay with Candida albicans, with Escherichia coli, against Cryptococcus neoformans, in the assay with Pseudomonas aeruginosa [1] and against Klebsiella pneumoniae was more than 20 µM each time. Also, the MIC in the assay with Acinetobacter baumannii and against Pseudomonas aeruginosa [2] was more than 20 µM each time. For the same molecule, in the assay on HEK293, the CC50 was more than 20 µM.
Take `CC(C)c1cc2c(cc1S(=O)(=O)O)[C@@]1(C)CCC[C@@](C)(C(=O)O)[C@@H]1CC2` [ECABET]: the MIC with Staphylococcus aureus, with Candida albicans, in the assay with Escherichia coli, against Cryptococcus neoformans, against Pseudomonas aeruginosa [1] and against Klebsiella pneumoniae was more than 20 µM throughout. The MIC in the assay with Acinetobacter baumannii and against Pseudomonas aeruginosa [2] was more than 20 µM in each case. Besides, the CC50 in the assay with HEK293 is more than 20 µM.
`CC[C@H]1OC(=O)[C@H](C)[C@@H](O[C@H]2C[C@@](C)(OC)[C@@H](O)[C@H](C)O2)[C@H](C)[C@@H](O[C@@H]2O[C@H](C)C[C@H](N(C)C)[C@H]2O)[C@](C)(O)C[C@@H](C)C(=O)[C@H](C)[C@@H](O)[C@]1(C)O` [ERYTHROMYCIN]: the MIC was more than 20 µM in the assay on Staphylococcus aureus; more than 20 µM with Candida albicans; more than 20 µM against Escherichia coli; more than 20 µM against Cryptococcus neoformans; 20 µM (≈ 14.7 µg/mL) with Pseudomonas aeruginosa [1]; more than 20 µM against Klebsiella pneumoniae. The MIC against Acinetobacter baumannii was more than 20 µM; with Pseudomonas aeruginosa [2] it was 20 µM (≈ 14.7 µg/mL). In addition, the CC50 in the assay with HEK293 is more than 20 µM.
In the case of `CC[C@@H](CO)NCCN[C@@H](CC)CO` [ETHAMBUTOL], the MIC against Staphylococcus aureus, with Candida albicans, against Escherichia coli, against Cryptococcus neoformans, against Pseudomonas aeruginosa [1] and against Klebsiella pneumoniae was more than 20 µM each time. Moreover, the MIC against Acinetobacter baumannii and in the assay with Pseudomonas aeruginosa [2] was more than 20 µM each time. In the assay on HEK293, the half-maximal cytotoxic concentration (CC50) was more than 20 µM.
For `O=C1[C@H](CC[C@H](O)c2ccc(F)cc2)[C@@H](c2ccc(O)cc2)N1c1ccc(F)cc1` [EZETIMIBE], the MIC in the assay with Staphylococcus aureus, in the assay with Candida albicans, in the assay with Escherichia coli, with Cryptococcus neoformans, against Pseudomonas aeruginosa [1] and against Klebsiella pneumoniae was more than 20 µM throughout. Also, the MIC in the assay with Acinetobacter baumannii and in the assay with Pseudomonas aeruginosa [2] was more than 20 µM throughout. Besides, the CC50 with HEK293 is more than 20 µM.

A word on the CC50: it is the concentration that lowers cell viability or growth by half.
